EC50 data for 27 compounds are collected here from patent US9394264B2 (Receptos, Inc., priority 2009, dated 2016).

Each structure is given as a SMILES string. Structures can show the parent of a compound that is named as a salt.

In this assay the target is S1P1/EDG1 (Homo sapiens, UniProt P21453). The assay can be described thus: S1P1 CRE-bla CHOK1 reporter assay (inhibition of Forskolin induced cAMP). Type of assay: cell-based. The settings on record: agonist activity range, S1P1 CRE-bla CHOK1 cells, 2 μM Forskolin; read-out: S1P1 ACTIVITY
Sequence of S1P1/EDG1 (P21453 whole entry): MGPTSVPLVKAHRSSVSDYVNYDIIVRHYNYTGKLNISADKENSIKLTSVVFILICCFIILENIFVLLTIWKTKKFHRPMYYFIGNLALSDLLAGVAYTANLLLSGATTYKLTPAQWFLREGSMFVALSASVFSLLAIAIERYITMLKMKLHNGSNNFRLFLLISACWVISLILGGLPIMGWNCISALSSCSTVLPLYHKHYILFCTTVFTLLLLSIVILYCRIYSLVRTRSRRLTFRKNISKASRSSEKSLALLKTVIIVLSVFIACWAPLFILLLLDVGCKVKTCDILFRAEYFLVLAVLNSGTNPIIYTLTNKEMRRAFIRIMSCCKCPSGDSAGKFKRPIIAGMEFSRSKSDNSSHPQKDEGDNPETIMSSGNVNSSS
The text has this: A mammalian expression plasmid containing S1P1/EDG1 cloned into pcDNA3.1 was purchased from Missouri S&T cDNA Resource Centre. The nucleotide and amino acid sequence of human S1P1/EDG1 are published in Hla and Maciag (J Biol Chem, 265(1990), 9308-9313). S1P1/pcDNA3.1 was transfected into the CRE-bla CHO K1 (Invitrogen) cell line, and stable single cell clones were selected using standard techniques. Expression of functional S1P1/EDG1 receptor was confirmed by cell surface FACS with a S1P1 antibody (R&D Systems, clone 218713) and S1P-mediated inhibition of Forskolin induced cAMP.
Cells were seeded into 384-well black wall/clear bottom plates at 10^4 cells/well/19.5 μl assay media (DMEM-phenol free, 0.5% charcoal/dextran stripped serum, 2 mM glutamine, 0.1 mM NEAA, 1 mM Na-Pyruvate, 25 mM Hepes) and incubated for 18 hrs at 37° C. in 5% CO2. Dose response curves (10-point) were generated in 10 mM Hepes, 0.1% Pluronic F127, in the presence of Forskolin. Cells were treated with 0.5 μl compound in the presence of 2 μM Forskolin for 4 hrs at 37° C. The FRET-based β-lactamase fluorescent substrate (LiveBLAzer™-FRET B/G Loading Kit CC4-AM; Invitrogen) was prepared according to manufacturer's directions, and incubated with cells for 2 hrs at room temperature. Plates were read at Ex:410/Em:458 and Ex:410/Em:522, and the response ratio determined. Data was analyzed by non-linear regression to determine the EC50 for inhibition of Forskolin induced cAMP.
`CC(C)Oc1ccc(-c2nc(-c3cccc4c3CCC[C@H]4NS(=O)(=O)CC(=O)N3CCC3)no2)cc1C#N` [Compound 43]: the EC50 is below 0.05 nM.
Regarding `CC(C)Oc1ccc(-c2nc(-c3cccc4c3CCC[C@H]4NS(=O)(=O)CCN(C)C)no2)cc1C#N` [Compound 44, (R)-N-(5-(5-(3-cyano-4-isopropoxyphenyl)-1,2,4-oxadiazol-3-yl)-1,2,3,4-tetrahydronaphthalen-1-yl)-2-(dimethylamino)ethanesulfonamide], the EC50 was 0.05 to 0.5 nM.
Next, `CC(C)Oc1ccc(-c2nc(-c3cccc4c3CCC[C@@H]4NS(=O)(=O)CCN(C)C)no2)cc1C#N` [Compound 45, (S)-N-(5-(5-(3-cyano-4-isopropoxyphenyl)-1,2,4-oxadiazol-3-yl)-1,2,3,4-tetrahydronaphthalen-1-yl)-2-(dimethylamino) ethanesulfonamide]: 0.5 to 5 nM; `CC(C)Oc1ccc(-c2nc(-c3cccc4c3CCC[C@@H]4NS(=O)(=O)CCN3CC[C@@H](O)C3)no2)cc1C#N` [Compound 46]: 0.5 to 5 nM; `CC(C)Oc1ccc(-c2nc(-c3cccc4c3CCC[C@H]4NS(=O)(=O)CCN3CC[C@@H](O)C3)no2)cc1C#N` [Compound 47]: 0.05 to 0.5 nM.
In the case of `CC(C)Oc1ccc(-c2nc(-c3cccc4c3CCC[C@H]4NCCS(C)(=O)=O)no2)cc1C#N` [Compound 48, (R)-2-isopropoxy-5-(3-(5-((2-(methylsulfonyl)ethyl)amino)-5,6,7,8-tetrahydronaphthalen-1-yl)-1,2,4-oxadiazol-5-yl)benzonitrile] it was 0.05 to 0.5 nM; in that of `CC(C)Oc1ccc(-c2nc(-c3cccc4c3CCC[C@H]4NCCO)no2)cc1C#N` [Compound 50, (R)-5-(3-(5-((2-hydroxyethyl)amino)-5,6,7,8-tetrahydronaphthalen-1-yl)-1,2,4-oxadiazol-5-yl)-2-isopropoxybenzonitrile], 0.05 to 0.5 nM; in that of `CC(C)Oc1ccc(-c2nc(-c3cccc4c3CCC[C@@H]4NCCO)no2)cc1C#N` [Compound 51, (S)-5-(3-(5-((2-hydroxyethyl)amino)-5,6,7,8-tetrahydronaphthalen-1-yl)-1,2,4-oxadiazol-5-yl)-2-isopropoxybenzonitrile], 0.05 to 0.5 nM.
For `CC(C)Oc1ccc(-c2nc(-c3cccc4c3CCC[C@H]4NCC(=O)O)no2)cc1C#N` [Compound 52, (R)-2-((5-(5-(3-cyano-4-isopropoxyphenyl)-1,2,4-oxadiazol-3-yl)-1,2,3,4-tetrahydronaphthalen-1-yl)amino) acetic acid], the EC50 was below 0.05 nM.
Take `CC(C)Oc1ccc(-c2nc(-c3cccc4c3CCC[C@@H]4NCC(=O)O)no2)cc1C#N` [Compound 53, (S)-2-((5-(5-(3-cyano-4-isopropoxyphenyl)-1,2,4-oxadiazol-3-yl)-1,2,3,4-tetrahydronaphthalen-1-yl)amino)acetic acid]: the EC50 lay in the range of 0.05 to 0.5 nM.
In the case of `CC(C)Oc1ccc(-c2nc(-c3cccc4c3CCC[C@H]4NCC(=O)N3CCCC3)no2)cc1C#N` [Compound 54, (R)-2-isopropoxy-5-(3-(5-((2-oxo-2-(pyrrolidin-1-yl)ethyl)amino)-5,6,7,8-tetrahydronaphthalen-1-yl)-1,2,4-oxadiazol-5-yl)benzonitrile] it was 0.5 to 5 nM.
In the case of `CC(C)Oc1ccc(-c2nc(-c3cccc4c3CCC[C@@H]4NCC(=O)N3CCCC3)no2)cc1C#N` [Compound 55, (S)-2-isopropoxy-5-(3-(5-((2-oxo-2-(pyrrolidin-1-yl)ethyl)amino)-5,6,7,8-tetrahydronaphthalen-1-yl)-1,2,4-oxadiazol-5-yl)benzonitrile] it was 0.05 to 0.5 nM.
In the case of `CC(C)Oc1ccc(-c2ncc(-c3cccc4c3CCC4O)o2)cc1C#N` (stereo not drawn) [Compound 56, 5-(5-(1-hydroxy-2,3-dihydro-1H-inden-4-yl)oxazol-2-yl)-2-isopropoxybenzonitrile] it was 0.5 to 5 nM; in that of `CC(C)Oc1ccc(-c2ncc(-c3cccc4c3CCC4NCCO)o2)cc1C#N` (stereo not drawn) [Compound 57, 5-(5-(1-(2-hydroxyethylamino)-2,3-dihydro-1H-inden-4-yl)oxazol-2-yl)-2-isopropoxybenzonitrile], 0.5 to 5 nM; in that of `CC(C)Oc1ccc(-c2ncc(-c3cccc4c3CCC4N[C@H](C)CO)o2)cc1C#N` (stereo partly drawn) [Compound 58, 5-(5-(1-((R)-1-hydroxypropan-2-ylamino)-2,3-dihydro-1H-inden-4-yl)oxazol-2-yl)-2-isopropoxybenzonitrile], above 5 nM.
Consider `CCOc1ccc(Cc2nc(-c3cccc4c3CCC4O)no2)cc1OCC` (stereo not drawn) [Compound 60, 4-(5-(3,4-diethoxybenzyl)-1,2,4-oxadiazol-3-yl)-2,3-dihydro-1H-inden-1-ol], for which the EC50 was above 5 nM.
As for `CCOc1ccc(Cc2nc(-c3cccc4c3CCC4NCCO)no2)cc1OCC` (stereo not drawn) [Compound 61, 2-((4-(5-(3,4-diethoxybenzyl)-1,2,4-oxadiazol-3-yl)-2,3-dihydro-1H-inden-1-yl)amino)ethanol], the EC50 was above 5 nM.
Next, `CCOc1ccc(Cc2nc(-c3cccc4c3CCC4N[C@H](C)CO)no2)cc1OCC` (stereo partly drawn) [Compound 62]: above 5 nM; `CCOc1ccc(Cc2nc(-c3cccc4c3CCC4NCCS(C)(=O)=O)no2)cc1OCC` (stereo not drawn) [Compound 63, 4-(5-(3,4-diethoxybenzyl)-1,2,4-oxadiazol-3-yl)-N-(2-(methylsulfonyl)ethyl)-2,3-dihydro-1H-inden-1-amine]: above 5 nM; `CCOc1ccc(Cc2nc(-c3cccc4c3CCC4NCCS(=O)(=O)NC)no2)cc1OCC` (stereo not drawn) [Compound 64, 2-((4-(5-(3,4-diethoxybenzyl)-1,2,4-oxadiazol-3-yl)-2,3-dihydro-1H-inden-1-yl)amino)-N-methylethanesulfonamide]: above 5 nM.
In the case of `CCOc1ccc(Cc2nc(-c3cccc4c3CC[C@H]4N)no2)cc1OCC` [Compound 65, (R)-4-(5-(3,4-diethoxybenzyl)-1,2,4-oxadiazol-3-yl)-2,3-dihydro-1H-inden-1-amine hydrochloride] it was above 5 nM; in that of `CCOc1ccc(Cc2nc(-c3cccc4c3CC[C@@H]4NCC(=O)N(C)C)no2)cc1OCC` [Compound 66, (S)-2-((4-(5-(3,4-diethoxybenzyl)-1,2,4-oxadiazol-3-yl)-2,3-dihydro-1H-inden-1-yl)amino)-N,N-dimethylacetamide], above 5 nM; in that of `OCCN[C@@H]1CCc2c(-c3noc(-c4cc(-c5ccccc5)c(C(F)(F)F)s4)n3)cccc21` [Compound 67, (R)-2-(4-(5-(4-phenyl-5-(trifluoromethyl)thiophen-2-yl)-1,2,4-oxadiazol-3-yl)-2,3-dihydro-1H-inden-1-ylamino)ethanol], above 5 nM.
Take `CC(C)Oc1ccc(-c2nc(-c3ccc4[nH]ccc4c3)no2)cc1C#N` [Compound 68, 5-(3-(1H-indol-5-yl)-1,2,4-oxadiazol-5-yl)-2-isopropoxybenzonitrile]: the EC50 fell in the range of 0.5 to 5 nM.
Next, `CC(C)Oc1ccc(-c2nc(-c3ccc4occc4c3)no2)cc1C#N` [Compound 69, 5-(3-(benzofuran-5-yl)-1,2,4-oxadiazol-5-yl)-2-isopropoxybenzonitrile]: 0.5 to 5 nM.
In the case of `Cc1cnccc1-c1noc(-c2ccc(OC(C)C)c(C#N)c2)n1` [Compound 70, 2-isopropoxy-5-(3-(3-methylpyridin-4-yl)-1,2,4-oxadiazol-5-yl)benzonitrile] it was below 0.05 nM.
In the case of `CC(C)Oc1ccc(-c2nc(-c3ccnc(CO)c3)no2)cc1C#N` [Compound 71, 5-(3-(2-(hydroxymethyl)pyridin-4-yl)-1,2,4-oxadiazol-5-yl)-2-isopropoxy-benzonitrile] it was 0.05 to 0.5 nM.
